From US20040034001A1, “Treatment of hypertension in women receiving hormone replacement therapy” (Schering AG, priority 2002, published 2004)

System: hypertensive postmenopausal women
Experiment: Post hoc analysis of blood pressure in women with elevated BP at baseline, multicenter 1-year endometrium study, no ACE inhibitor
Assay type: in vivo, human
Conditions: after 11 weeks; subset with baseline systolic BP>=140 mm Hg and or diastolic BP>=90 mm Hg
Protocol: Administration of DRSP/E2 to Hypertensive Postmenopausal Women not being Treated with an ACE Inhibitor.
In a multicenter, double-blind randomized study examining the effect on the endometrium of 1142 postmenopausal women treated for 1 year with 1 of 4 doses of DRSP (0.5,1,2, and 3 mg) compared with E2 alone, mean systolic and diastolic blood pressure decreased from baseline for all treatment groups.

C[C@]12CC[C@@H]3c4ccc(O)cc4CC[C@H]3[C@@H]1CC[C@@H]2O [E2, 17-β-estradiol]
mean decrease in systolic blood pressure: −3.7 mm Hg
